Measured values from patent US20150322033A1, “ANTIBACTERIAL AGENT” (priority 2012, published 2015).
Values after ≈ are worked out from the molar mass of the structure shown. Read-outs that look alike come from different tables or passages of the source.

Assays:
[1] = tested on: S. aureus FDA209P (ATCC 6538P); test: microbe, parasite or virus in culture; type: cell-based, Staphylococcus aureus; settings: for MIC: Staphylococcus aureus, read-out: MIC (mg/L) FDA209P
Method: (§1) S. aureus Mu50 (refer to Hiramatsu, K., Hanaki H., et al., J. Antimicrob. Chemother., 1997, 40(1), 135-6) or S. aureus FDA209P (ATCC 6538P) was cultured overnight at 37° C. in 4 mL of TBS (Tryptical Soy Broth, produced by Becton Dickinson) with shaking. After completion of the culture, the cells were suspended in fresh TBS to prepare a cell suspension showing an absorbance of 0.3 at 578 nm. Then, the cell suspension was diluted 500 times with CAMHB mentioned above.
(§2) CAMHB containing each test compound at each of the aforementioned concentrations was added to each well of a 96-well plate in a volume of 50 μL/well, the aforementioned cell suspension diluted 500 time was added to the well in a volume of 50 μL/well, and stationary culture was carried out overnight at 37° C.
(§3) MIC values (mg/L) of the flavones and quinolones against the strains were measured in the same manner as that of the measurement of MIC of Example 1, except that CAMHB containing each of the aforementioned flavones and quinolones prepared in Example 2 was used instead of CAMHB containing each of the test compounds.
(§4) MIC values of the flavones and quinolone for the strains were measured in the same manners as those of Example 1, except that S. aureus Mu50 NR-1 was also used as Staphylococcus aureus in addition to S. aureus FDA209P and S. aureus Mu50, cell suspensions of the strains were prepared.
(§5) In the same manner as that of Example 1, MIC values of M-246, M-21, J-Q21, and J-Q12.1 for Staphylococcus aureus were measured. M-246 and M-21 were obtained as commercial products, and as J-Q21 and J-Q12.1, those synthesized in Examples 6 and 7 were used.

S. aureus Mu50 = test: microbe, parasite or virus in culture; type: cell-based, Staphylococcus aureus; settings: for MIC: Staphylococcus aureus; for MIC (mg/L) Mu50: Example 1, Tables 1 to 10
Method: as §1, §2, §3, §4, §5

[2] = MU50, read-out: MIC (mg/L) Mu50, Example 1, Tables 1 to 10
[3] = MU50, read-out: MIC (mg/L) Mu50

Structure (SMILES)	MIC ([1]; Example 1, Tables 1 to 10) [mg/L]	MIC (S. aureus Mu50; [2]) [mg/L]	MIC (mg/L) FDA209P ([1]; Example 1, Tables 1 to 10) [mg/L]	MIC (mg/L) Mu50 (S. aureus Mu50) [mg/L]	further results
O=c1cc(-c2ccc(O)c(-c3c(O)cc(O)c4c(=O)cc(-c5ccc(O)cc5)oc34)c2)oc2cc(O)cc(O)c12 [compound 45]	> 128	> 128			
COc1cc(OC)c2c(=O)cc(-c3ccccc3)oc2c1C1=COC(C)(C)C1=O [compound 46]	128 (≈ 326 µM)	> 128			
COc1cc(O)c(CN(C)C)c2oc(-c3ccccc3)cc(=O)c12 [compound 47]	128 (≈ 393 µM)	> 128			
COc1cc(O)c(CN2CCCCC2)c2oc(-c3ccccc3)cc(=O)c12 [compound 48]			128 (≈ 350 µM)	>128	
COc1cc(O)c(CN2CC(C)CC(C)C2)c2oc(-c3ccccc3)cc(=O)c12 (stereo not drawn) [compound 49]			128 (≈ 325 µM)	>128	
COc1cc(O)c(CN2CCOCC2)c2oc(-c3ccccc3)cc(=O)c12 [compound 50]	> 128	> 128			
COc1cc(O)c(CN2CCN(C)CC2)c2oc(-c3ccccc3)cc(=O)c12 [compound 51]			128 (≈ 336 µM)	128 (≈ 336 µM)	
COc1cc(O)c(CN2CCCCC2C)c2oc(-c3ccccc3)cc(=O)c12 (stereo not drawn) [compound 52]			>128	>128	
O=c1c(O)c(-c2ccccc2S(=O)(=O)O)oc2ccccc12 [compound 54]	128 (≈ 402 µM)	128 (≈ 402 µM)			
Cc1c(-c2ccccc2)oc2c(C(=O)OCCN3CCCCC3)cccc2c1=O [compound 55]	128 (≈ 327 µM)	> 128			
CC(=O)C1C(=O)c2ccccc2N(c2ccccc2)C1=O (stereo not drawn) [compound 56]	> 128	> 128			
O=c1cc(-c2ccccc2)oc2ccc3ccccc3c12 [compound 57]			128 (≈ 470 µM)	128 (≈ 470 µM)	
O=c1cc(-c2ccccc2)oc2c1ccc1ccccc12 [compound 58]			128 (≈ 470 µM)	128 (≈ 470 µM)	
O=C(O)[C@H]1O[C@@H](Oc2cc3oc(-c4ccccc4)cc(=O)c3c(O)c2O)[C@H](O)[C@@H](O)[C@@H]1O [compound 59]	128 (≈ 287 µM)	128 (≈ 287 µM)			
O=c1cc(-c2ccc(O)c(O)c2)oc2c(C3OC(CO)C(O)C(O)C3O)c(O)cc(O)c12 (stereo not drawn) [compound 60]			>128	>128	
O=c1c(O)c(-c2ccc(O)c(O)c2)oc2c(OC3OC(CO)C(O)C(O)C3O)c(O)cc(O)c12 (stereo not drawn) [compound 61]			128 (≈ 266 µM)	128 (≈ 266 µM)	
O=C(O)C1OC(Oc2cc(O)c3c(=O)cc(-c4ccc(O)c(O)c4)oc3c2)C(O)C(O)C1O (stereo not drawn) [compound 62]			>128	>128	
O=c1cc(-c2ccc(OC3OC(CO)C(O)C(O)C3O)cc2)oc2cc(O)cc(O)c12 (stereo not drawn) [compound 63]			128 (≈ 296 µM)	128 (≈ 296 µM)	
O=c1cc(-c2ccc(O[C@@H]3O[C@H](CO)[C@@H](O)[C@H](O)[C@H]3O)c(O)c2)oc2cc(O)cc(O)c12 [compound 64]	> 128	> 128			
O=c1c(OC2OC(CO)C(O)C(O)C2O)c(-c2ccc(O)cc2)oc2cc(O)cc(O)c12 (stereo not drawn) [compound 65]			>128	>128	
O=C(O)C1OC(Oc2ccc(-c3cc(=O)c4c(O)cc(O)cc4o3)cc2O)C(O)C(O)C1O (stereo not drawn) [compound 67]			128 (≈ 277 µM)	128 (≈ 277 µM)	
O=c1cc(-c2ccc(O)cc2)oc2ccccc12 [compound 68, 2-(4-hydroxyphenyl)chromen-4-one]	128 (≈ 537 µM)	128 (≈ 537 µM)			
O=c1cc(-c2ccc(O)cc2)oc2cccc(O)c12 [compound 70]	128 (≈ 503 µM)	128 (≈ 503 µM)			
CCOC(=O)c1oc2cc(O)cc(O)c2c(=O)c1-c1ccc(OC)cc1 [compound 71]	128 (≈ 359 µM)	128 (≈ 359 µM)			

Structure (SMILES)	MIC ([1]; Example 1, Tables 1 to 10) [mg/L]	MIC (S. aureus Mu50; [2]) [mg/L]	MIC (mg/L) FDA209P ([1]; Example 1, Tables 1 to 10) [mg/L]	MIC (mg/L) Mu50 (S. aureus Mu50) [mg/L]	further results
COc1ccc(-c2coc3cc(OC(C)=O)cc(OC(C)=O)c3c2=O)cc1 [compound 72]	> 128	> 128			
COc1ccc(-c2c(C)oc3cc(O)cc(O)c3c2=O)cc1OC [compound 73]	128 (≈ 390 µM)	> 128			
COc1ccc(-c2coc3cc(OC)cc(O)c3c2=O)cc1 [compound 74]	> 128	> 128			
CCOc1ccc(-c2coc3cc(OCC)cc(OCC)c3c2=O)cc1 [compound 75]	> 128	> 128			
COc1ccc(-c2coc3cc(OC)cc(OC)c3c2=O)cc1 [compound 76]	> 128	> 128			
CC(=O)Oc1cc(OC(C)=O)c2c(=O)c(-c3ccc4c(c3)OCCO4)c(C)oc2c1 [compound 77]			>128	>128	
COc1cc(O)c2c(=O)c(-c3ccc(OC4OC(CO)C(O)C(O)C4O)cc3)coc2c1 (stereo not drawn) [compound 78]			>128	>128	
COc1ccc(-c2coc3cc(OC(=O)N(C)C)cc(O)c3c2=O)cc1OC [compound 79]					MIC [1]: > 128 mg/L; MIC (S. aureus Mu50; [3]): > 128 mg/L
COc1ccc(-c2coc3cc(OC(=O)N(C)C)cc(OC)c3c2=O)cc1OC [compound 80]					MIC [1]: > 128 mg/L; MIC (S. aureus Mu50; [3]): > 128 mg/L
O=c1c(-c2ccc(OC3OC(CO)C(O)C(O)C3O)cc2)coc2cc(O)cc(O)c12 (stereo not drawn) [compound 81]			>128	>128	
CC(=O)Oc1ccc(-c2coc3cc(OC(C)=O)cc(OC(C)=O)c3c2=O)cc1 [compound 82]	> 128	> 128			
Cc1oc2cc(O)cc(O)c2c(=O)c1-c1ccc2c(c1)OCCCO2 [compound 83]	128 (≈ 376 µM)	128 (≈ 376 µM)			
COc1cc(OC)c2c(=O)c(-c3ccc(OC4OC(CO)C(O)C(O)C4O)cc3)coc2c1 (stereo not drawn) [compound 85]			>128	>128	
Cc1cc2c(cc1-c1c(C)oc3cc(O)cc(O)c3c1=O)OCCO2 [compound 87]			64 (≈ 188 µM)	128 (≈ 376 µM)	
COc1cc(OC)c2c(=O)c(-c3cc4c(cc3C)OCCO4)c(C)oc2c1 [compound 88]			128 (≈ 347 µM)	>128	
CC(=O)Oc1cc(OC(C)=O)c2c(=O)c(-c3cc4c(cc3C)OCCO4)c(C)oc2c1 [compound 89]			128 (≈ 302 µM)	128 (≈ 302 µM)	
CCOC(=O)c1oc2cc(OC)cc(O)c2c(=O)c1-c1ccc(OC)cc1 [compound 91]	> 128	> 128			
COc1ccc(-c2c(C(=O)O)oc3cc(OC)cc(OC)c3c2=O)cc1 [compound 92]	> 128	> 128			
COc1cc(-c2coc3cc(O)c(OC)c(O)c3c2=O)cc(O)c1OC [compound 93]	128 (≈ 355 µM)	128 (≈ 355 µM)			
COc1ccc(-c2coc3cc(O)c(OC)c(O)c3c2=O)cc1 [compound 94]	128 (≈ 407 µM)	128 (≈ 407 µM)			
O=C(O)C1OC(Oc2ccc(-c3coc4cc(O)cc(O)c4c3=O)cc2)C(O)C(O)C1O (stereo not drawn) [compound 95]			128 (≈ 287 µM)	>128	
COc1cc(OC2OC(CO)C(O)C(O)C2O)c2c(=O)c(-c3ccc(O)cc3)coc2c1 (stereo not drawn) [compound 96]			128 (≈ 287 µM)	128 (≈ 287 µM)	
COc1c2c(cc3occ(-c4ccc(O)cc4)c(=O)c13)OCO2 [compound 97]			128 (≈ 410 µM)	128 (≈ 410 µM)	
COc1cc(OC)c(-c2coc3cc(O)cc(O)c3c2=O)cc1OC [compound 98]	128 (≈ 372 µM)	> 128			
